# From US5773444A, “Quinazolines as inhibitors of endothelin converting enzyme” (Warner-Lambert Company, priority 1997, dated 1998)
# Structures can show the parent of a compound that is named as a salt. Non-standard residues stand in square brackets, D forms with d. Residues, ends and D or L forms follow the SMILES beside them. *: point of attachment. Sta = CC(C)C[C@H](N)[C@@H](O)CC(=O)O; Isovaleryl = CC(C)CC(=O)*
# T1: endothelin converting enzyme (ECE) (Homo sapiens, UniProt P42892)
# T1 construct: ECE was partially purified from EA.hy926 grown in 150 roller; endogenous in cells; host or cells: EA.hy926 (human umbilical vein endothelial cells fused with A549); detergent-solubilised membranes, RCA-I lectin eluate
# T1 sequence (P42892 whole entry, looked up): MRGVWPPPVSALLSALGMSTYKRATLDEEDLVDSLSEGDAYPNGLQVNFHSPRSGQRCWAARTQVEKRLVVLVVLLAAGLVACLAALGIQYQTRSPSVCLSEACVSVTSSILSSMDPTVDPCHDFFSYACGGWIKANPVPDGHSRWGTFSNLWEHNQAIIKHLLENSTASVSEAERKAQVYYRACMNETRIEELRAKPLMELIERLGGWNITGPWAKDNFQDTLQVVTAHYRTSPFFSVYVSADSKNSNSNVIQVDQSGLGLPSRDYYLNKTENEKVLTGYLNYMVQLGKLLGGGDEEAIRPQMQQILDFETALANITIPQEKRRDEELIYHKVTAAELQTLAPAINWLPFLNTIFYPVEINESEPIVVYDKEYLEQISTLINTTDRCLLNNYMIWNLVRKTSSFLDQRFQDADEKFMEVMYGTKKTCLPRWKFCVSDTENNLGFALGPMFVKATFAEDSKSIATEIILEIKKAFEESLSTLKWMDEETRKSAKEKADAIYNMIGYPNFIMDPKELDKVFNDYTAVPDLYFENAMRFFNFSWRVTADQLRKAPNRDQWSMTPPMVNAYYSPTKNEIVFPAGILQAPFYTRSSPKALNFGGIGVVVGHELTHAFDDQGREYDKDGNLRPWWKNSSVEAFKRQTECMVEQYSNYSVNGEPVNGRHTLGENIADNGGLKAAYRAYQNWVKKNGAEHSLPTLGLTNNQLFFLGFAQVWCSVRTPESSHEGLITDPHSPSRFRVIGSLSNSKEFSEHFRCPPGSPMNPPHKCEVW
# B1: soybean trypsin inhibitor: soybean trypsin inhibitor (protein, UniProt P01070 25-205, looked up)
# Trypsin inhibitor A: DFVLDNEGNPLENGGTYYILSDITAFGGIRAAPTGNERCPLTVVQSRNELDKGIGTIISSPYRIRFIAEGHPLSLKFDSFAVIMLCVGIPTEWSVVEDLPEGPAVKIGENKDAMDGWFRLERVSDDEFNNYKLVFCPQQAEDDKCGDIGISIDHDDGTRRLVVSKNKPLVVQFQKLDKESL
# Target: T2, endothelin converting enzyme (ECE) (Homo sapiens, UniProt P42892)
# T2 construct: ECE was partially purified from EA.hy926 grown in 150 roller; endogenous in cells; host or cells: EA.hy926 (human umbilical vein endothelial cells fused with A549); detergent-solubilised membranes, RCA-I lectin eluate
# Assay: Cell-based assay (ET-1 level in medium of EA.hy926 cells by RIA)
# Conditions: read-out: IC50 (Table IV, cell-based assay)
# Method: A permanent human cell line (EA.hy926), derived by fusing human umbilical vein endothelial cells with the permanent human cell line A549 (derived from a human lung carcinoma), was cultured as described, except that the medium also contained HAT supplements (100 μM hypoxanthine, 0.4 μM aminopterin, 16 μM thymidine). Edgell, C.-J. S., McDonald, C. C., and Graham, J. B. (1983) Proc. Natl. Acad. Sci. USA 80, 3734-3737. Cells from passages 40 to 50 were used. Subcultures were prepared by treating confluent cells with trypsin (0.5%) and seeded either onto 24 well plates for a cell-based assay or onto roller bottles for a partial purification of the enzyme.
# ET-1 was measured by radioimmunoassay (RIA) as described previously with minor modifications. Ahn, K., Beningo, K., Olds, G., and Hupe, D. (1992) Proc. Nat. Acad. Sci. USA, 89, 8606-8610. Briefly, the RIA mixture (250 μl) contained the antibody against ET-1, an ET-1 sample, and [^125 I] ET-1 (15000 cpm) in buffer D. For the analysis of ET-1 from cell based assays, the final 6% bovine serum albumin was added. […] The amount of immunoreactive (ir) ET-1 was measured by counting the supernatant and determined from the standard curve. […]
# EAhy926 cells (0.2-4×10^4) were seeded into 24-plates and cultures as described above. […] The ET-1 level from these samples were measured by RIA previously described. […]
row,IC50 [µM],Molecule
1,6.6 ± 1.5,"CCN1CCCC(Nc2nc(C(Cl)(Cl)Cl)nc3ccc(I)cc23)C1 (stereo not drawn) [Example 1, (1-Ethyl-piperidin-3-yl)-(6-iodo-2-trichloromethyl-quinazolin-4-yl)-amine, Monohydrochloride]"
2,14.4 ± 1.1,"CCN1CCCC(Nc2nc(C(Cl)(Cl)Cl)nc3ccc(Cl)cc23)C1 (stereo not drawn) [Example 3, (1-Ethyl-piperidin-3-yl)-(6-chloro-2-trichloromethyl-quinazolin-4-yl)-amine]"

# Test system: ET-1 production in cultured bovine aortic endothelial cells
# Assay: not given
# Conditions: intracellular accumulation of pepstatin; cited from earlier work
row,Molecule,inhibition of ET-1 production
1,CC(C)CC(=O)N[C@H](C(=O)N[C@H](C(=O)N[C@@H](CC(C)C)[C@@H](O)CC(=O)N[C@@H](C)C(=O)N[C@@H](CC(C)C)[C@@H](O)CC(=O)O)C(C)C)C(C)C [pepstatin] (Isovaleryl-VV[Sta]A[Sta]-OH),did not inhibit ET-1 production

# Target: T2, endothelin converting enzyme (ECE)
# Assay: ECE assay (partially purified ECE from EA.hy926, ET-1 production by RIA)
# Assay type: biochemical
# Conditions: not given
row,Molecule,inhibition of the enzyme (in words)
1,O=C(O)CN(CCN(CC(=O)O)CC(=O)O)CC(=O)O [EDTA],inhibited

# Same assay, conditions: 10 μM big ET-1, pH 7.0, 1.5 hours at 37° C., 3% DMSO; read-out: IC50 (Table III, Biological Activity of Compounds of the Present Invention)
row,IC50 [µM],Molecule
1,4.2 ± 0.5,"CCN1CCCC(Nc2nc(C(Cl)(Cl)Cl)nc3ccc(I)cc23)C1 (stereo not drawn) [Example 1, (1-Ethyl-piperidin-3-yl)-(6-iodo-2-trichloromethyl-quinazolin-4-yl)-amine, Monohydrochloride]"
2,9.2 ± 0.8,"CCN1CCCC(Nc2nc(-c3ccccc3)nc3ccc(I)cc23)C1 (stereo not drawn) [Example 2, (1-Ethyl-piperidin-3-yl)-(6-iodo-2-phenyl-quinazolin-4-yl)-amine]"
3,14.1 ± 1.5,"CCN1CCCC(Nc2nc(C(Cl)(Cl)Cl)nc3ccc(Cl)cc23)C1 (stereo not drawn) [Example 3, (1-Ethyl-piperidin-3-yl)-(6-chloro-2-trichloromethyl-quinazolin-4-yl)-amine]"
4,29.1 ± 5.4,"CCN1CCCC(Nc2nc(C(Cl)(Cl)Cl)nc3ccc([N+](=O)[O-])cc23)C1 (stereo not drawn) [Example 4, (1-Ethyl-piperidin-3-yl)-(6-nitro-2-trichloromethyl-quinazolin-4-yl)-amine]"
5,17.6 ± 1.7,"CCN1CCCC(Nc2nc(C(C)(C)C)nc3ccc(I)cc23)C1 (stereo not drawn) [Example 5, (2-tert-Butyl-6-iodo-quinazolin-4-yl)-(1-ethyl-piperidin-3-yl)-amine]"
6,29.6 ± 6,"NCCNc1nc(C(Cl)(Cl)Cl)nc2ccc(I)cc12 [Example 6, N-(6-Iodo-2-trichloromethyl-quinazolin-4-yl)-ethane-1,2-diamine hydrochloride]"
7,22.1 ± 4.8,"CNCCNc1nc(C(Cl)(Cl)Cl)nc2ccc(I)cc12 [Example 7, N-(6-Iodo-2-trichloromethyl-quinazolin-4-yl)-N^1-methyl-ethane-1,2-diamine]"
8,11.1 ± 2.7,"CN(C)CCNc1nc(C(Cl)(Cl)Cl)nc2ccc(I)cc12 [Example 8, N-(6-Iodo-2-trichloromethyl-quinazolin-4-yl)-N^1,N^1-dimethyl-ethane-1,2-diamine]"
9,3.7 ± 1.6,ClC(Cl)(Cl)c1nc(NCCN2CCCCC2)c2cc(I)ccc2n1 [Example 9]
10,25.4 ± 4.2,"ClC(Cl)(Cl)c1nc(NCCN2CCOCC2)c2cc(I)ccc2n1 [Example 10, (6-Iodo-2-trichloromethyl-quinazolin-4-yl)-(2-morpholin-4-yl-ethyl)-amine]"
11,12.4 ± 1,"CCN1CCCC1CNc1nc(C(Cl)(Cl)Cl)nc2ccc(I)cc12 (stereo not drawn) [Example 11, (1-Ethyl-pyrrolidin-2-yl-methyl)-(6-iodo-2-trichloromethyl-quinazolin-4-yl)-amine]"
12,66.6 ± 11.8,"CC(C)N(CCNc1nc(C(Cl)(Cl)Cl)nc2cc(Cl)ccc12)C(C)C [Example 13, N-(7-Chloro-2-trichloromethyl-quinazolin-4-yl)-N',N'-diisopropyl-ethane-1,2-diamine]"
13,75.5 ± 11.6,"O=C(O)CN1CCCC(Nc2nc(C(Cl)(Cl)Cl)nc3ccc(I)cc23)C1 (stereo not drawn) [Example 14, [3-(6-Iodo-2-trichloromethyl-quinazolin-4-yl-amino)-piperidin-1-yl]-acetic acid potassium salt]"
14,8.4 ± 1.4,"CN(C)CC(CN(C)C)Nc1nc(C(Cl)(Cl)Cl)nc2ccc(I)cc12 [Example 16, N'-(6-Iodo-2-trichloromethyl-quinazolin-4-yl)-N,N,N"",N""-tetramethyl-propane-1,2,3-triamine monohydrochloride]"
15,2.3 ± 0.3,"CCN1CCCC(Nc2nc(C(F)(F)F)nc3ccc(I)cc23)C1 (stereo not drawn) [Example 17, (1-Ethyl-piperidin-3-yl)-(6-iodo-2-trifluoromethyl-quinazolin-4-yl)-amine]"

row,Molecule,IC50 [µM]
1,"ClC(Cl)(Cl)c1nc(NC2CN3CCC2CC3)c2cc(I)ccc2n1 (stereo not drawn) [Example 12, (1 -Aza-bicyclo[2,2,2,]oct-3-yl)-(6-iodo-2-trichloromethyl-quinazolin-4-yl)-amine]",11.1 ± 1.7

# Same assay, conditions: 100 μM thiorphan or 100 nM phosphoramidon
row,effect on ECE activity at NEP-blocking concentration,Molecule
1,without affecting the ECE activity,O=C(O)CNC(=O)C(CS)Cc1ccccc1 (stereo not drawn) [thiorphan]

# Same assay, conditions: partially purified ECE from EA.hy926
row,inhibition of the enzyme (in words),Molecule
1,inhibited,"c1cnc2c(c1)ccc1cccnc12 [1,10-phenanthroline]"
2,inhibited,O=C(O)CN(CCOCCOCCN(CC(=O)O)CC(=O)O)CC(=O)O [EGTA]
3,not inhibited,CC(C)C[C@H](NC(=O)[C@H]1O[C@@H]1C(=O)O)C(=O)NCCCCN=C(N)N [Example E-64]
4,not inhibited,CC(C)C[C@H](NC(=O)[C@@H](O)[C@H](N)Cc1ccccc1)C(=O)O [bestatin]
5,not inhibited,C[C@H](CS)C(=O)N1CCC[C@H]1C(=O)O [captopril]
6,not inhibited,C[C@H](N[C@@H](CCc1ccccc1)C(=O)O)C(=O)N1CCC[C@H]1C(=O)O [enalaprilat]
7,not inhibited,O=C(O)CNC(=O)C(CS)Cc1ccccc1 (stereo not drawn) [thiorphan]

row,Molecule,inhibition of the enzyme (in words)
1,CC(=O)N[C@@H](CC(C)C)C(=O)N[C@@H](CC(C)C)C(=O)N[C@H](C=O)CCCNC(=N)N [leupeptin],not inhibited
2,CC(C)CC(=O)N[C@H](C(=O)N[C@H](C(=O)N[C@@H](CC(C)C)[C@@H](O)CC(=O)N[C@@H](C)C(=O)N[C@@H](CC(C)C)[C@@H](O)CC(=O)O)C(C)C)C(C)C [pepstatin A] (Isovaleryl-VV[Sta]A[Sta]-OH),not inhibited
3,O=S(=O)(F)Cc1ccccc1 [phenylmethlysulfonyl fluoride],not inhibited

# Target: T1, endothelin converting enzyme (ECE)
# Assay: as above
# Assay type: biochemical
# Conditions: partially purified ECE from EA.hy926
row,inhibition of the enzyme (in words),Molecule
1,not inhibited,B1

# Test system: neutral endopeptidase 24.11 (NEP 24.11)
# Assay: NEP 24.11 inhibition under ECE assay conditions
# Assay type: biochemical, human
# Conditions: 100 μM thiorphan or 100 nM phosphoramidon
# Description: The cell line, EA.hy926, contains neutral endopeptidase 24.11 (NEP 24.11) which also cleaves big ET-1 to ET-1 and c-terminal fragment (manuscript submitted). […] All the data were obtained in the linear range of time-course curves.
row,NEP 24.11 inhibition,Molecule
1,completely inhibited,O=C(O)CNC(=O)C(CS)Cc1ccccc1 (stereo not drawn) [thiorphan]
